Measured values taken from ChEMBL document CHEMBL1201862, “PubChem BioAssay data set” (2004).
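Growth conditions: 96-well plates. Treatment: test compound, 48 hours, 5 concentrations. Analysis: linear interpolation between bracketing concentrations; unreached endpoints set to highest concentration. GI50 = concentration required for 50% inhibition of growth.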 The source made the active and inactive calls. No stated cut-off is given here; in the data, active = GI50 up to about 1.1 µM and inactive = higher.

Tests used:
Experiment in all cases: NCI anticancer screen, dose series, 48 h
[1] = system: LOX IMVI
[2] = system: SK-MEL-5
[3] = system: KM12
[4] = system: PC-3
[5] = system: SN12C
[6] = system: HT-29
[7] = system: OVCAR-3
[8] = system: A549
[9] = system: IGROV-1
[10] = system: NCI/ADR-RES
[11] = system: UACC-62
[12] = system: COLO 205
[13] = system: A498
[14] = system: TK-10
[15] = system: CCRF-CEM
[16] = system: U-251
[17] = system: EKVX
[18] = system: RXF 393
[19] = system: MDA-N
[20] = system: SNB-75

COC1=C(OC)C(=O)C(C/C=C/c2c(Cl)nc3sccn23)=C(C)C1=O
GI50 [1]: 2.24 µM (inactive)
GI50 [2]: 1.32 µM (inactive)
GI50 [3]: 17.5 µM (inactive)
GI50 [4]: 11.8 µM (inactive)
GI50 [5]: 16.6 µM (inactive)
GI50 [6]: 20.7 µM (inactive)
GI50 [7]: 13.7 µM (inactive)
GI50 [8]: 11.2 µM (inactive)
GI50 [9]: 17.4 µM (inactive)
GI50 [10]: 5.58 µM (inactive)
GI50 [11]: 14.5 µM (inactive)
GI50 [12]: 16.9 µM (inactive)
GI50 [13]: 22.2 µM (inactive)
GI50 [14]: 15 µM (inactive)
GI50 [15]: 1.85 µM (inactive)
GI50 [16]: 5.87 µM (inactive)
GI50 [17]: 11.2 µM (inactive)
GI50 [18]: 18.4 µM (inactive)
GI50 [19]: 6.38 µM (inactive)

C=C(CCOC)CCC1CCCCC(=C)C1=O (configuration not stated)
GI50 [1]: > 100 µM (inactive)
GI50 [2]: > 100 µM (inactive)
GI50 [3]: 63.1 µM (inactive)
GI50 [4]: > 100 µM (inactive)
GI50 [5]: > 100 µM (inactive)
GI50 [6]: > 100 µM (inactive)
GI50 [7]: > 100 µM (inactive)
GI50 [8]: > 100 µM (inactive)
GI50 [20]: > 100 µM (inactive)
GI50 [9]: > 100 µM (inactive)
GI50 [10]: > 100 µM (inactive)
GI50 [11]: > 100 µM (inactive)
GI50 [12]: > 100 µM (inactive)
GI50 [13]: > 100 µM (inactive)
GI50 [15]: > 100 µM (inactive)
GI50 [16]: > 100 µM (inactive)
GI50 [17]: > 100 µM (inactive)
GI50 [18]: > 100 µM (inactive)
GI50 [19]: > 100 µM (inactive)

COC(=O)[C@H](Cc1ccccc1)NC(=O)N(CCC#N)CCN(C(=O)N[C@@H](Cc1ccccc1)C(=O)OC)c1ccccc1
GI50 [1]: 22.5 µM (inactive)
GI50 [2]: 22.9 µM (inactive)
GI50 [3]: 37.3 µM (inactive)
GI50 [4]: 32.1 µM (inactive)
GI50 [5]: 32.2 µM (inactive)
GI50 [7]: 19.9 µM (inactive)
GI50 [8]: 47.1 µM (inactive)
GI50 [20]: 17.5 µM (inactive)
GI50 [9]: 20.8 µM (inactive)
GI50 [10]: > 100 µM (inactive)
GI50 [11]: 3.34 µM (inactive)
GI50 [12]: 25 µM (inactive)
GI50 [13]: 23 µM (inactive)
GI50 [14]: 20 µM (inactive)
GI50 [15]: 27.2 µM (inactive)
GI50 [16]: > 10 µM (inactive)
GI50 [17]: 29.5 µM (inactive)
GI50 [18]: 18.2 µM (inactive)
GI50 [19]: 17.5 µM (inactive)

COc1ccc(CC2c3cc(OC)c(OC)c(OC)c3CC[N+]2(C)C)cc1Oc1ccc(CC2c3cc4c(c(OC)c3CCN2C)OCO4)cc1 (configuration not stated)
GI50 [1]: > 100 µM (inactive)
GI50 [2]: 96.6 µM (inactive)
GI50 [3]: > 100 µM (inactive)
GI50 [4]: > 100 µM (inactive)
GI50 [5]: > 100 µM (inactive)
GI50 [6]: > 100 µM (inactive)
GI50 [7]: > 100 µM (inactive)
GI50 [8]: > 100 µM (inactive)
GI50 [20]: > 100 µM (inactive)
GI50 [9]: > 100 µM (inactive)
GI50 [10]: > 100 µM (inactive)
GI50 [11]: > 100 µM (inactive)
GI50 [12]: > 100 µM (inactive)
GI50 [13]: > 100 µM (inactive)
GI50 [14]: > 100 µM (inactive)
GI50 [16]: > 100 µM (inactive)
GI50 [17]: > 100 µM (inactive)
GI50 [18]: > 100 µM (inactive)
GI50 [19]: > 100 µM (inactive)

[N-]=[N+]=NC1=C(c2ccccn2)C(=O)c2cccc3cccc1c23
GI50 [1]: 8.65 µM (inactive)
GI50 [2]: 6.84 µM (inactive)
GI50 [3]: 25.4 µM (inactive)
GI50 [4]: 39.3 µM (inactive)
GI50 [5]: 20.8 µM (inactive)
GI50 [6]: 21.1 µM (inactive)
GI50 [7]: 27.7 µM (inactive)
GI50 [8]: 27.7 µM (inactive)
GI50 [20]: 29 µM (inactive)
GI50 [9]: 14.8 µM (inactive)
GI50 [10]: 50.8 µM (inactive)
GI50 [11]: 20 µM (inactive)
GI50 [12]: 76.9 µM (inactive)
GI50 [13]: 5.48 µM (inactive)
GI50 [14]: 41.7 µM (inactive)
GI50 [15]: 7.03 µM (inactive)
GI50 [16]: 29.2 µM (inactive)
GI50 [18]: 37.2 µM (inactive)
GI50 [19]: 53.8 µM (inactive)

Nc1nc2c(ncn2CC2CCC(CO)C2)c(=O)[nH]1 (configuration not stated)
GI50 [1]: > 100 µM (inactive)
GI50 [2]: > 100 µM (inactive)
GI50 [3]: > 100 µM (inactive)
GI50 [4]: > 100 µM (inactive)
GI50 [5]: > 100 µM (inactive)
GI50 [7]: > 100 µM (inactive)
GI50 [8]: > 100 µM (inactive)
GI50 [20]: > 100 µM (inactive)
GI50 [10]: > 100 µM (inactive)
GI50 [11]: 29.2 µM (inactive)
GI50 [12]: > 100 µM (inactive)
GI50 [13]: > 100 µM (inactive)
GI50 [14]: > 100 µM (inactive)
GI50 [15]: > 100 µM (inactive)
GI50 [16]: > 100 µM (inactive)
GI50 [17]: > 100 µM (inactive)
GI50 [18]: > 100 µM (inactive)
GI50 [19]: > 100 µM (inactive)

COC(=O)c1cc2c(cc1O)[C@@H](NC(C)=O)CCc1cc(OC)c(OC)c(OC)c1-2
GI50 [1]: 0.0501 µM (active)
GI50 [2]: 0.0235 µM (active)
GI50 [3]: 0.0283 µM (active)
GI50 [4]: 0.0509 µM (active)
GI50 [5]: 0.127 µM (active)
GI50 [6]: 0.044 µM (active)
GI50 [7]: 0.0518 µM (active)
GI50 [8]: 0.0605 µM (active)
GI50 [20]: 0.0299 µM (active)
GI50 [9]: 0.0627 µM (active)
GI50 [10]: 0.114 µM (active)
GI50 [11]: 0.0692 µM (active)
GI50 [12]: 0.029 µM (active)
GI50 [13]: 0.0568 µM (active)
GI50 [14]: > 10 µM (inactive)
GI50 [15]: 0.0492 µM (active)
GI50 [16]: 0.0342 µM (active)
GI50 [17]: 0.0415 µM (active)
GI50 [19]: 0.0277 µM (active)
